The source of these data is PMC4629797 (Organic & biomolecular chemistry, 2015).

For experiment [1], the system named is MCF-7 cell line (breast cancer). As to the kind of experiment: Cytotoxicity, standard MTT colorimetric assay, MCF-7. Type of experiment: cell-based. The settings on record: read-out: IC50 MCF-7, MCF-7 breast cancer cells.
The test system of experiment [2] is MCF10A cell line (normal breast epithelial cells). As to the kind of experiment: Cytotoxicity, standard MTT colorimetric assay, MCF10A. Type of experiment: cell-based. The settings on record: read-out: IC50 MCF10A.
For a further experiment, the system named is 20S proteasome. Particulars: potency comparable to belactosins A and C; cited from earlier work.

With `CC[C@H](C)[C@H](NC(=O)[C@@H](NC(=O)C1OC(=O)C1C(C)C)C(C)C)C(=O)O` (single isomer, unassigned; (-)) [(−)-1, cystargolide A], the figures for the half-maximal inhibitory concentration (IC50) in experiment [1] and in experiment [2] were 58 ± 9.5 µM and over 100 µM, respectively. Further, the “activity as 20S proteasome inhibitors” value in the experiment on 20S proteasome is given as “exhibited activity as 20S proteasome inhibitors”.
With `CC(C)C1C(=O)OC1C(=O)N[C@H](C(=O)N[C@H](C(=O)O)C(C)C)C(C)C` (single isomer, unassigned; (-)) [(−)-2, cystargolide B], the IC50 in experiment [1] is 84.7 ± 18.6 µM; in experiment [2] it was over 100 µM. In addition, in the experiment with 20S proteasome, the “activity as 20S proteasome inhibitors” value is reported as “exhibited activity as 20S proteasome inhibitors”.
